According to ChEMBL document CHEMBL2010687 (Bioorg Med Chem Lett, 2012):

How the values were obtained:
[1] = target: T1, Growth hormone secretagogue receptor type 1 (Homo sapiens, UniProt Q92847); assay: Antagonist activity at human GHSR1a receptor assessed as intracellular Ca2+ concentration by aequorin luminescent assay; assay type: functional, cell-based
[2] = AUC in Sprague-Dawley rat at 2 mg/kg, po; assay type: ADME, organism-based; design: dose 2 mg/kg, route oral; settings: plasma
[3] = Clearance in Sprague-Dawley rat at 2 mg/kg, po; assay type: ADME, organism-based; design: dose 2 mg/kg, route oral; settings: in vivo
[4] = Metabolic stability in human liver S9 fraction assessed as compound remaining after 1 hr; assay type: ADME, subcellular; settings: read-out: Stability
[5] = Metabolic stability in rat liver S9 fraction assessed as compound remaining after 1 hr; assay type: ADME, subcellular; settings: read-out: Stability
[6] = Oral bioavailability in Sprague-Dawley rat at 2 mg/kg; assay type: ADME, organism-based; settings: in vivo
[7] = target: Growth hormone secretagogue receptor type 1 (Mus musculus, UniProt Q99P50); assay: Antagonist activity at mouse GHSR1 receptor assessed as intracellular Ca2+ concentration by aequorin luminescent assay; assay type: functional, cell-based
Growth hormone secretagogue receptor type 1 (Mus musculus, UniProt Q99P50), sequence (Q99P50 whole entry): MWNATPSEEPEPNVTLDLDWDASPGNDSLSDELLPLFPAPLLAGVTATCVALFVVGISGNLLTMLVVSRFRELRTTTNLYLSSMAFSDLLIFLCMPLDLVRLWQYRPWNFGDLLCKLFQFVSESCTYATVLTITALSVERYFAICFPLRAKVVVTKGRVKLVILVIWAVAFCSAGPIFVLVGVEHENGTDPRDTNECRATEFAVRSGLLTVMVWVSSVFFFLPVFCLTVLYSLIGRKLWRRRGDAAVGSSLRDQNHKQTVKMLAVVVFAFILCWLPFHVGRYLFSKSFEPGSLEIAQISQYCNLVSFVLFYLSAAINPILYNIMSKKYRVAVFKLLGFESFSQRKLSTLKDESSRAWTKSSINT

[8] = target: T1, Growth hormone secretagogue receptor type 1; assay: Displacement of [125I]Ghrelin from human GHSR1a receptor

T1 sequence (Q92847 whole entry): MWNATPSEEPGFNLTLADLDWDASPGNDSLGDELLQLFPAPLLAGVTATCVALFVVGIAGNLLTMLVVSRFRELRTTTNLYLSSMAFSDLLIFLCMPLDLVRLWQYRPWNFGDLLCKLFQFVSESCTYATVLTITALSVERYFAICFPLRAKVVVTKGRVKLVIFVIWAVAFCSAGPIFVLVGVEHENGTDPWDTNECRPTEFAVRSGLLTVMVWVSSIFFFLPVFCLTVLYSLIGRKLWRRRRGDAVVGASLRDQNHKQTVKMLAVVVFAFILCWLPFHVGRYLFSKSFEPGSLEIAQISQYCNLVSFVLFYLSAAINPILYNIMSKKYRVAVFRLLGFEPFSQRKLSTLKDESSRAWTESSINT

Row | SMILES | IC50 [1] [nM] | remaining at 1 h [4] [%] | remaining at 1 h [5] [%] | further results
1 | CC(C)[C@@H](C(=O)NC1CCN(Cc2ccccc2)CC1)N1CC(=O)Nc2ccc(Oc3ccccc3)cc2C1=O | 196 |  |  | 
2 | CC(C)[C@H](C[C@H]1CC[C@@H](NCC2CC2)CC1)N1CCCc2ccc(Oc3ccc(F)cc3F)cc2C1=O | 2 | 92 | 97 | AUC [2]: 618 ng·h/mL; CL/F [3]: 10 mL/min/kg; bioavailability [6]: 39%
3 | COc1cccc(Oc2ccc3c(c2)C(=O)N([C@@H](C(=O)NC2CCN(Cc4ccccc4)CC2)C(C)C)CC(=O)N3)c1 | 143 | 22 | 10 | 
4 | CC(C)[C@H](C(=O)NC1CCC(Cc2ccccc2)CC1)N1CC(=O)Nc2ccc(Oc3ccccc3)cc2C1=O (stereo not given in full) | > 10000 | 23 | 95 | 
5 | CC(C)[C@H](C(=O)N1CCC(N[C@H](C)C2CCCCC2)CC1)N1CC(=O)Nc2ccc(Oc3ccccc3)cc2C1=O | 2.5 | 30 | 28 | 
6 | CC(C)[C@H](C[C@H]1CC[C@@H](NCC2CC2)CC1)N1CC(=O)Nc2ccc(Oc3ccc(F)cc3F)cc2C1=O | 20 | 68 | 27 | 
7 | Cc1cccc(C)c1Oc1ccc2c(c1)C(=O)N([C@@H](C(=O)NC1CCN(Cc3ccccc3)CC1)C(C)C)CC(=O)N2 | 1 |  |  | 
8 | CC(C)[C@H](C(=O)NC1CCN(C(=O)c2ccccc2)CC1)N1CC(=O)Nc2ccc(Oc3ccccc3)cc2C1=O | > 10000 |  |  | 
9 | CC(C)[C@H](C(=O)N1CCC(NC(C)(C)c2ccccc2)CC1)N1CC(=O)Nc2ccc(Oc3ccccc3)cc2C1=O | 16.5 | 19 | 48 | 
10 | CC(C)[C@H](C(=O)NC1CCN(Cc2ccccc2)CC1)N1CC(=O)Nc2ccc(Oc3ccccc3)cc2C1=O | 8 | 30 | 19 | AUC [2]: 132 ng·h/mL; CL/F [3]: 143 mL/min/kg; IC50 [7]: 7 nM; Ki [8]: 4.4 nM; bioavailability [6]: 6%
11 | CC(C)[C@H](C(=O)N1CCC(NCCC2CCCCC2)CC1)N1CC(=O)Nc2ccc(Oc3ccccc3)cc2C1=O | 4.1 | 76 |  | 
12 | CC(C)[C@H](C(=O)N1CCC(NCC2CC2)CC1)N1CC(=O)Nc2ccc(Oc3ccccc3)cc2C1=O | 50 | 86 | 71 | 
13 | CC(C)[C@H](C(=O)NC1CCN(Cc2ccccc2)CC1)N1CC(=O)Nc2ccc(Oc3cccc(Cl)c3)cc2C1=O | 171 |  |  | 
14 | CC(C)[C@H](C(=O)N1CCC(N[C@H](C)c2ccccc2)CC1)N1CC(=O)Nc2ccc(Oc3ccccc3)cc2C1=O | 2.5 | 27 | 46 | 
15 | CC(C)[C@H](C[C@H]1CC[C@@H](NCc2ccccc2)CC1)N1CC(=O)Nc2ccc(Oc3ccccc3)cc2C1=O | 6 |  |  | 
16 | Cc1ccc(Oc2ccc3c(c2)C(=O)N([C@@H](C(=O)NC2CCN(Cc4ccccc4)CC2)C(C)C)CC(=O)N3)cc1 | 7 |  |  | 
17 | O=C1CN(CC(=O)NC2CCN(Cc3ccccc3)CC2)C(=O)c2cc(Oc3ccccc3)ccc2N1 | 314 |  |  | 
18 | CC(C)[C@H](C(=O)N1CCC(NCc2ccccc2)CC1)N1CC(=O)Nc2ccc(Oc3ccc(F)cc3F)cc2C1=O | 0.3 | 70 | 65 | 
19 | CC(C)[C@H](C(=O)NC1CCN(Cc2ccccc2)CC1)N1CC(=O)Nc2ccc(Oc3ccc(Cl)cc3)cc2C1=O | 28 |  |  | 
20 | CC(C)[C@H](C(=O)N1CCC(NCc2ccccc2)CC1)N1CC(=O)Nc2ccc(Oc3ccccc3)cc2C1=O | 8 | 62 | 72 | 
21 | COc1ccccc1Oc1ccc2c(c1)C(=O)N([C@@H](C(=O)NC1CCN(Cc3ccccc3)CC1)C(C)C)CC(=O)N2 | 26 | 26 | 19 | 
22 | Cc1cc(F)ccc1Oc1ccc2c(c1)C(=O)N([C@@H](C(=O)NC1CCN(Cc3ccccc3)CC1)C(C)C)CC(=O)N2 | 0.2 | 5 | 3 | 
23 | CC(C)[C@H](C(=O)NC1CCNCC1)N1CC(=O)Nc2ccc(Oc3ccccc3)cc2C1=O | > 10000 |  |  | 
24 | Cc1ccccc1Oc1ccc2c(c1)C(=O)N([C@@H](C(=O)NC1CCN(Cc3ccccc3)CC1)C(C)C)CC(=O)N2 | 3 | 5 | 3 | 
25 | COc1ccc(Oc2ccc3c(c2)C(=O)N([C@@H](C(=O)NC2CCN(Cc4ccccc4)CC2)C(C)C)CC(=O)N3)cc1 | 79 |  |  | 
26 | CC(C)[C@H](C(=O)NC1CCN(Cc2ccccc2)CC1)N1CC(=O)Nc2ccc(Oc3ccc(F)cc3)cc2C1=O | 11 |  |  | 
27 | CC(C)[C@H](C(=O)N1CCC(NCCC2CCOCC2)CC1)N1CC(=O)Nc2ccc(Oc3ccccc3)cc2C1=O | 313 |  |  | 
28 | O=C1CN([C@@H](C(=O)NC2CCN(Cc3ccccc3)CC2)C2CC2)C(=O)c2cc(Oc3ccccc3)ccc2N1 | 12 |  |  | 
